The values below come from US20050222110A1, “Use of loteprednol etabonate for the treatment of dry eye” (priority 2004, published 2005).

Data set [1] has as its system keratoconjunctivitis sicca (KCS) in patients with delayed tear clearance. In words: Clinical trial in KCS patients: corneal fluorescein staining score. The data set is classed as in vivo, human. The following applies: subset with more severe clinical inflammatory signs at entry. On the procedure: (§1) A randomized, double-masked, placebo-controlled, multicenter, pilot study was conducted in compliance with ICH Good Clinical Practice and the Declaration of Helsinki. Approval was obtained from an Institutional Review Board for each study site before initiating the study. Written informed consent was obtained from all patients before any study specific investigations were performed.
In addition, they were required to meet the following criteria in at least one eye: • 1. delayed tear clearance defined by a standardized visual scale score ≧3^15 • 2. at least one symptom >30 mm on the visual analog scale (VAS) • 3. composite corneal staining score >3
Patients were randomly assigned to receive either Lotemax® Bausch and Lomb Inc. Rochester N.Y., or placebo four times a day. […]
Patients attended for 5 visits. […] The fluorescence was graded between 0 and 6 using a standard color comparison scale. […] The corneal staining was evaluated 5 minutes after the instillation of the 2% fluorescein, viewing the cornea through a slit lamp with blue light and a No. 11 Wratten filter (See Table 2 below).
As is traditional for studies of this kind, two primary variables were defined representing subjective evaluation by the patient and objective evaluation based on the clinical examination findings. […] Each area was scored according to the corneal staining grading scale (Table 2 above). […]

Data set [2] in a line: Clinical trial in KCS patients: adverse events and toxicity. The class given is in vivo, human. Conditions: following one month of therapy. How it is done:
as §1
(§2) Patients were randomly assigned to receive either Lotemax® Bausch and Lomb Inc. Rochester N.Y., or placebo four times a day. Lotemax® (loteprednol etabonate ophthalmic suspension, 0.5%) was supplied in 7.5 mL (5.0 mL fill) white, low density polyethylene dropper bottles with white caps for masking purposes. Placebo (the vehicle of Lotemax®) was supplied in identical bottles. Preservative Free Moisture Eyes™ Lubricant Eye Drops (Bausch & Lomb) were supplied in unit dose containers.
(§3) Safety was assessed by fundoscopy, lens examination and biomicroscopy, by tests of visual acuity and intraocular pressure, and by monitoring adverse events and changes in symptomatology. Adverse events were evaluated by the investigator as to severity (mild, moderate, severe) and relationship of the event to the study drug (probable, possible, unlikely, or unknown).

Data set [3] in a line: Clinical trial in KCS patients: intraocular pressure. The data set is classed as in vivo, human. Conditions: one month of therapy; mean IOP and individual patients. On the procedure:
as §1, §2, §3

The conditions of data set [4]: 0.2%; up to 3 years; 265 patients; allergic conjunctivitis; cited from earlier work.

Molecules are shown by their SMILES.

Turning to `CCOC(=O)O[C@]1(C(=O)OCCl)CC[C@H]2[C@@H]3CCC4=CC(=O)C=C[C@]4(C)[C@H]3[C@@H](O)C[C@@]21C` [loteprednol, (11β,17α),-17-[(Ethoxycarbonyl)oxy]-11-hydroxy-3-oxoandrosta-1,4-diene-17-carboxylic acid chloromethyl ester], in data set [1] (four weeks), the “Central corneal fluorescein staining, improvement” value is around 20%. The “Central corneal fluorescein staining, improvement” value in data set [1] (two weeks) was “approximately 30%”. The Toxicity result in data set [2] is listed as “complete lack of toxicity”. Further, in data set [3], the “Elevation of IOP” value is recorded as “neither elevation of the mean IOP nor any individual with a clinically important elevation of the IOP”. Besides, in data set [4], the Cataract formation entry is recorded as “no cataract formation was observed” and the “Mean intraocular pressure compared to pretreatment values” is reported as “not different from baseline”.
